US20250115573A1, “PYRIDAZINE-BASED PYRIDINE DERIVATIVES AS BIOLOGICALLY ACTIVE AGENTS” (priority 2023, published 2025)
≈ marks a conversion by molar mass, not a printed value. Blank lines part the entries; values can stand above or below the compound they belong to.

Assays:
[1] = DPPH antioxidant activity; conditions: DPPH method; ascorbic acid's IC50 value normalized to 100%
Method: The antioxidant activity was assessed by the DPPH (1,1-diphenyl-2-picryl hydrazyl) method employing ascorbic acid as a standard. A 0.1 mM solution of DPPH was freshly prepared in ethanol. Different dilutions (25, 20, 15, 10 and 5 μg/mL) of compounds 1-12 and ascorbic acid were also prepared in ethanol. The test and standard solutions were prepared by adding DPPH solution (2 mL) to the different dilutions (6 mL each) of the compounds 1-12 and ascorbic acid, respectively. The control solution was prepared by adding DPPH solution (2 mL) to ethanol (6 mL). The resultant mixtures were shaken and kept at 25° C. for half an hour. The absorbance of the test, standard, and control solutions was measured at 517 nm using a UV-Visible spectrophotometer. The experiment was performed in triplicate, and the antioxidant activity was calculated using the following equation,
wherein Ac is the absorbance of the control, and As is the absorbance of the test or standard sample. The IC50 values were obtained from the regression analysis.

human COX-2 = biological target: T1, human COX-2 (Homo sapiens, UniProt P35354); experiment: In vitro COX-2 inhibitory activity; format: biochemical; conditions: for selectivity index: COX-2 over COX-1, selectivity index of celecoxib normalized to 100%; for COX-2 inhibitory activity in comparison to celecoxib: IC50 value of celecoxib normalized to 100%
T1 construct: purchased Cayman Chemicals 560131
T1 sequence (P35354 18-604): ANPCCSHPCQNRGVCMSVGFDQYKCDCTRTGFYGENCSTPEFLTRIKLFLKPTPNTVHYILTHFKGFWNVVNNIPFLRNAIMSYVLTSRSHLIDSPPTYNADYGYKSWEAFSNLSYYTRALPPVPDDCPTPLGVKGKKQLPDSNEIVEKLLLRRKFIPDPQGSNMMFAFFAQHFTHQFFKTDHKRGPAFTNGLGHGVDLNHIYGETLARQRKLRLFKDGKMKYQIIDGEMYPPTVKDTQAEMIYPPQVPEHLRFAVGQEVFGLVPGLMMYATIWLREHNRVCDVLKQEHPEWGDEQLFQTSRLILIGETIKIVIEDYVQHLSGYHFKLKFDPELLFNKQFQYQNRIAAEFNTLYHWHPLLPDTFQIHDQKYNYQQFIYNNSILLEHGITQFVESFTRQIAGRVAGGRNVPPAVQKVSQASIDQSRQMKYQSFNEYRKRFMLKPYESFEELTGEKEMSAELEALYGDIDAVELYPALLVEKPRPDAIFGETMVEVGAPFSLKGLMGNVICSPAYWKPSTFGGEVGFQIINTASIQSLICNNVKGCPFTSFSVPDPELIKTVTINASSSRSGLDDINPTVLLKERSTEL

[2] = tested on: Candida albicans (C. albicans, ATCC 2091); experiment: Antimicrobial activity, serial plate dilution method; format: cell-based; conditions: ATCC2091, against C. albicans, Sabouraud dextrose medium
Method: (§1) Antimicrobial activity was performed by the serial plate dilution method (Medicinal Chemistry Research, 2017, 26, 1481-1496; Arabian Journal of Chemistry, 2016, 9, 1523-1531) against two Gram-positive bacteria, Staphylococcus aureus (S. aureus, ATCC 25923) and Enterococcus faecalis (E. faecalis, ATCC 29212); two Gram-negative bacteria, Escherichia coli (E. coli, ATCC 25922) and Pseudomonas aeruginosa (P. aeruginosa, ATCC 27853); and two fungi, Candida albicans (C. albicans, ATCC 2091) and Aspergillus niger (A. niger, MTCC 281). Antibacterial activity was performed on nutrient agar medium, whereas Sabouraud dextrose medium was used for the antifungal activity. The compounds 1-12 were tested at 100, 75, 50, 25, and 12.5 μg/mL concentrations. The standard antibiotics, ofloxacin and ketoconazole, were tested at 50, 25, and 12.5 μg/mL concentrations. Sterile dimethyl sulfoxide (DMSO) was used as a solvent for making the desired concentrations of the compounds ofloxacin and ketoconazole. Sterile DMSO also served as a control group. The minimum inhibitory concentrations (MICs) values of the synthesized compounds, ofloxacin and ketoconazole, were determined. The minimum inhibitory concentration (MIC) has been defined as the lowest concentration of a compound that inhibits the visible growth of the microorganisms in the media.

[3] = tested on: Aspergillus niger (A. niger, MTCC 281); experiment: as above; format: cell-based; conditions: MTCC281, against A. niger, Sabouraud dextrose medium
Method: as §1

[4] = tested on: Enterococcus faecalis (E. faecalis, ATCC 29212); experiment: as above; format: cell-based; conditions: ATCC29212, against E. faecalis, nutrient agar medium
Method: as §1

[5] = tested on: Staphylococcus aureus (S. aureus, ATCC 25923); experiment: as above; format: cell-based; conditions: ATCC25923, against S. aureus, nutrient agar medium
Method: as §1

Compound: COc1ccccc1-n1c(N)c(C#N)c(-c2ccc(-n3nc(-c4ccccc4)ccc3=O)cc2)c(C#N)c1=O [Compound 4, 6-Amino-1-(2-methoxyphenyl)-2-oxo-4-(4-(6-oxo-3-phenylpyridazin-1(6H)-yl)phenyl)-1,2-dihydropyridine-3,5-dicarbonitrile]
antioxidant activity in comparison to ascorbic acid [1]: 71.95%

Compound: Cc1c(-n2c(N)c(C#N)c(-c3ccc(-n4nc(-c5ccccc5)ccc4=O)cc3)c(C#N)c2=O)c(=O)n(-c2ccccc2)n1C [Compound 8, 6-Amino-1-(1,5-dimethyl-3-oxo-2-phenyl-2,3-dihydro-1H-pyrazol-4-yl)-2-oxo-4-(4-(6-oxo-3-phenylpyridazin-1(6H)-yl)phenyl) -1,2-dihydropyridine-3,5-dicarbonitrile]
antioxidant activity in comparison to ascorbic acid [1]: 78.32%

Compound: N#Cc1c(-c2ccc(-n3nc(-c4ccccc4)ccc3=O)cc2)c(C#N)c(=O)n(-c2cccc(C(F)(F)F)c2)c1N [Compound 9, 6-amino-2-oxo-4-(4-(6-oxo-3-phenylpyridazin-1(6H) -yl)phenyl)-1-(3-(trifluoromethyl)phenyl)-1,2-dihydropyridine-3,5-dicarbonitrile]
antioxidant activity in comparison to ascorbic acid [1]: 70.90% | MIC [2]: 12.5 µg/mL (≈ 22.7 µM) | MIC [3]: 12.5 µg/mL (≈ 22.7 µM) | selectivity index (human COX-2): 111.0% | COX-2 inhibitory activity in comparison to celecoxib (human COX-2): 100.89%

Compound: O=C1O[C@H]([C@@H](O)CO)C(O)=C1O [ascorbic acid, reference compound]
antioxidant activity in comparison to ascorbic acid [1]: 100%

More lines, main results first:

selectivity index (human COX-2): 101.61%
Compound: N#Cc1c(-c2ccc(-n3nc(-c4ccccc4)ccc3=O)cc2)c(C#N)c(=O)n(-c2ccccn2)c1N [Compound 6, 6-Amino-2-oxo-4-(4-(6-oxo-3-phenylpyridazin-1(6H) -yl)phenyl)-2H-[1,2′-bipyridine]-3,5-dicarbonitrile]

selectivity index (human COX-2): 121.73%
Compound: N#Cc1c(-c2ccc(-n3nc(-c4ccccc4)ccc3=O)cc2)c(C#N)c(=O)n(-c2nccs2)c1N [Compound 7, 6-Amino-2-oxo-4-(4-(6-oxo-3-phenylpyridazin-1(6H) -yl)phenyl)-1-(thiazol-2-yl)-1,2-dihydro-pyridine-3,5-dicarbonitrile]

MIC [4]: 25 µg/mL (≈ 44.5 µM) | MIC [5]: 25 µg/mL (≈ 44.5 µM) | selectivity index (human COX-2): 121.20% | COX-2 inhibitory activity in comparison to celecoxib (human COX-2): 105.95%
Compound: N#Cc1c(-c2ccc(-n3nc(-c4ccccc4)ccc3=O)cc2)c(C#N)c(=O)n(-c2ccc(S(N)(=O)=O)cc2)c1N [Compound 10, 4-(6-amino-3,5-dicyano-2-oxo-4-(4-(6-oxo-3-phenylpyridazin-1(6H)-yl)phenyl)pyridin-1(2H)-yl)benzenesulfonamide]
antioxidant activity in comparison to ascorbic acid [1]: 74%

MIC [2]: 12.5 µg/mL (≈ 23.5 µM) | MIC [3]: 12.5 µg/mL (≈ 23.5 µM)
Compound: CC(=O)N1CCN(c2ccc(OCC3COC(Cn4ccnc4)(c4ccc(Cl)cc4Cl)O3)cc2)CC1 (stereo not shown) [ketoconazole, reference compound]

MIC [4]: 25 µg/mL (≈ 69.2 µM) | MIC [5]: 25 µg/mL (≈ 69.2 µM)
Compound: CC1COc2c(N3CCN(C)CC3)c(F)cc3c(=O)c(C(=O)O)cn1c23 (stereo not shown) [ofloxacin, reference compound]
